# Data taken from patent US20220339143A1, “TAK-925 FOR USE IN TREATING NARCOLEPSY” (Takeda Pharmaceutical Company Limited, priority 2019, published 2022).
# Legend:
# patients with NT1 [1] = experiment: Epworth Sleepiness Scale (ESS), multiple dose (Cohorts B1, B2); assay type: in vivo, human; details: for ESS Change from Baseline, Median / ESS Observed Value, Median: Day 7; for ESS Observed Value, Mean: Day 7 (placebo 16.3); for ESS Change from Baseline, Mean: Day 7 (placebo −0.3)
# Experimental: (§1) The purpose of the study was to evaluate the safety, tolerability, pharmacokinetics and pharmacodynamics of Compound A after multiple IV administration in patients with NT1. NT1 patients were evaluated in Cohort B1 and B2 (Table 19). Compound A or placebo were administered via IV infusion over 9 hours once daily for 7 days. A total of 13 patients with NT1 were treated with Compound A or placebo (4, 4, and 5 subjects in the placebo, Compound A 11 mg, and Compound A 44 mg groups, respectively). In this part, potential efficacy of Compound A was evaluated with MWT, ESS, KSS, night-time PSG (NPSG), cataplexy frequency assessment, and PGI-C as an exploratory PD assessment.
# [2] = Single dose PK in healthy elderly subjects (Cohort 3), plasma; assay type: in vivo, human
# Experimental: (§2) This study investigates (i) the safety and tolerability of Compound A (methyl (2R,3S)-3-((methylsulfonyl)amino)-2-(((cis-4-phenylcyclohexyl)oxy)methyl)piperidine-1-carboxylate) when a single dose given as a 9 hour continuous IV infusion is administered to healthy adults, healthy elderly subjects and patients with narcolepsy type 1 (NT1); (ii) the pharmacokinetics of Compound A when a single dose given as a 9 hour continuous IV infusion is administered to healthy adults, healthy elderly subjects and patients with narcolepsy type 1; and (iii) the pharmacodynamics (PD) effects of Compound A, primarily by evaluation of the sleep latency on MWT when a single dose given as a 9 hour continuous IV infusion is administered to patients with narcolepsy type 1.
# (§3) Pharmacokinetics: Concentrations of Compound A in plasma, and CSF, and pharmacokinetics parameters.
# patients with NT1 [3] = experiment: KSS, multiple dose (Cohorts B1, B2); assay type: in vivo, human; details: 9 hours postdose
# Experimental: as §1
# patients with NT1 [4] = experiment: PVT, multiple dose (Cohorts B1, B2); assay type: in vivo, human; details: 9 hours postdose
# [5] = CSF PK in healthy subjects (Cohort 4); assay type: in vivo; details: human; for concentration at 6 h: cerebrospinal fluid, intravenous, 112 mg, Cohort 4
# Experimental: as §3
# Following a single 9-hour IV infusion of 112 mg to healthy adult subjects in Cohort 4, Compound A plasma concentration-time profile was consistent with that observed in Cohort 1. At 6 hours after the start of infusion, mean ratio CSF/plasma concentration of Compound A was estimated to be about 2.8%.
# [6] = test system: patients with narcolepsy type 1 (NT1); experiment: Safety/tolerability of a single dose given as 9 hour continuous IV infusion in NT1 patients; assay type: in vivo, human
# Experimental: as §2
# Safety and tolerability: adverse events, vital signs, 12-lead ECG and clinical laboratory tests (hematological tests, blood biochemical tests and urinalysis)
# To investigate the safety of Compound A, the treatment-emergent adverse events (TEAEs) for healthy subjects and subjects with narcolepsy type 1 (NT1 patients) treated with Compound A were evaluated. A summary of the TEAEs for healthy subjects from cohorts 1 and 2 is shown in FIG. 3, for healthy subjects from cohorts S1, S2, 3, and 4 is shown in FIG. 4, and for NT1 patients is shown in FIG. 5.
structure (smiles),measurement,setting,value
"COC(=O)N1CCC[C@H](NS(C)(=O)=O)[C@@H]1CO[C@H]1CC[C@@H](c2ccccc2)CC1 [Compound A, methyl (2R,3S)-3-((methylsulfonyl)amino)-2-(((cis-4-phenylcyclohexyl)oxy)methyl)piperidine-1-carboxylate]","ESS Change from Baseline, Median",patients with NT1 [1]; 11 mg,−9.5
same,"ESS Observed Value, Median",patients with NT1 [1]; 11 mg,8.5
same,"ESS Observed Value, Mean",patients with NT1 [1]; 11 mg,9.8
same,"ESS Change from Baseline, Mean",patients with NT1 [1]; 11 mg,−8.3
same,"ESS Change from Baseline, Median",patients with NT1 [1]; 44 mg,−18.0
same,"ESS Observed Value, Median",patients with NT1 [1]; 44 mg,0.0
same,"ESS Observed Value, Mean",patients with NT1 [1]; 44 mg,0.0
same,"ESS Change from Baseline, Mean",patients with NT1 [1]; 44 mg,−18.6
same,reduction in clearance compared to younger healthy subjects,[2],20%
same,mean change from baseline in KSS,"patients with NT1 [3]; 11 mg, Day 1 (placebo 0.0)",−3.0
same,mean change from baseline in KSS,"patients with NT1 [3]; 11 mg, Day 7 (placebo −0.3)",−2.0
same,mean change from baseline in KSS,"patients with NT1 [3]; 44 mg, Day 1 (placebo 0.0)",−4.4
same,mean change from baseline in KSS,"patients with NT1 [3]; 44 mg, Day 7 (placebo −0.3)",−4.6
same,"PVT, mean change from baseline in the number of lapses","patients with NT1 [4]; 11 mg, Day 1 (placebo 10.5)",−9.3
same,"PVT, mean change from baseline in mean duration of the reciprocal 10% slowest reaction time (1/RT)","patients with NT1 [4]; 11 mg, Day 1 (placebo −0.49)",0.88
same,"PVT, mean change from baseline in the number of lapses","patients with NT1 [4]; 11 mg, Day 7 (placebo 11.8)",−14.8
same,"PVT, mean change from baseline in mean duration of the reciprocal 10% slowest reaction time (1/RT)","patients with NT1 [4]; 11 mg, Day 7 (placebo −0.73)",1.27
same,"PVT, mean change from baseline in the number of lapses","patients with NT1 [4]; 44 mg, Day 1 (placebo 10.5)",−12.8
same,"PVT, mean change from baseline in mean duration of the reciprocal 10% slowest reaction time (1/RT)","patients with NT1 [4]; 44 mg, Day 1 (placebo −0.49)",0.51
same,"PVT, mean change from baseline in the number of lapses","patients with NT1 [4]; 44 mg, Day 7 (placebo 11.8)",−12.8
same,"PVT, mean change from baseline in mean duration of the reciprocal 10% slowest reaction time (1/RT)","patients with NT1 [4]; 44 mg, Day 7 (placebo −0.73)",−0.70
same,Kp at 6 h,"[5]; CSF, 112 mg single 9-hour IV infusion, 6 hours after the start of infusion, healthy adults Cohort 4, read-out: mean ratio CSF/plasma concentration",~0.028
same,concentration at 6 h,[5]; Mean,6.73 ng/mL
same,concentration at 6 h,[5]; Median,6.63 ng/mL
same,AEs observed in NT1 at the highest dose,[6]; 44.8 mg,"Blood pressure increase, heart rate increase, central nervous system (CNS) related symptoms (euphoric mood, hypnagogic hallucination and logorrhea) and salivary hypersecretion were observed"
same,dose dependent effect on BP and heart rate increase,"[6]; NT1 subjects, doses up to 44.8 mg",not notable
same,tolerability,"[6]; single dose, slow infusion over 9 hours, up to 44.8 mg, narcolepsy type 1 patients",well-tolerated with no major safety concerns
